Measurements reported in patent publication US11814367B2, “Inhibitors of glycogen synthase 1 (GYS1) and methods of use thereof” (Maze Therapeutics, Inc., priority 2021, dated 2023).

Experiments:
[1] = system: hGYS1 enzyme / glycogen synthesis in HeLa cells; assay: GYS1 cell based assay (glycogen synthesis, Glucose-glo); design: species or system human; settings: Homo sapiens, HeLa, 24 h, 24 h incubation, 20 mM glucose, geometric mean of at least 2 runs
Text: The GYS1 cell based assay is a bioluminescent assay that quantifies the glucose resulting from glycogen digestion; the quantified glucose is an indirect measure of GYS1 glycogen synthesis. Newly synthesized glycogen is digested using Glucoamylase; the resulting glucose is quantified by using the Glucose-glo assay kit from Promega. Glucose-glo works by coupling glucose oxidation and NADH production with a bioluminescent system that is activated with NADH. Glucose is oxidized by Glucose dehydrogenase and the reaction reduces NAD+ to NADH; NADH activates Reductase which reduces a pro-luciferin Reductase Substrate to luciferin. Luciferin is detected in a luciferase reaction using Ultra-Glo rLuciferase and ATP, and the luminesce produced is proportional to the glucose in the sample. The luminescence is measured as a single point read in a plate reader.
Compounds that inhibit the hGYS1 enzyme and, subsequently, the glycogen synthesis in cells, were tested using assay ready plates (white, clear bottom 384 well plates) in a final DMSO reaction volume of 1% DMSO. Compounds in the assay ready plates were mixed with media with no additives, except for 20 mM glucose prior to cell addition. HeLa cells were starved in media with no additives, except for 1× Glutamax for 24 h. Starved HeLa cells were plated, in a 1:1 ratio to the media in the assay ready plate and incubated for 24 h at 37° C. and 5% C02. Cells were washed in 1×PBS buffer and lysed in lysis buffer containing 50% 1×PBS and 25% 0.3 N HCl of the final volume in the well or reaction volume; cells were incubated with lysis buffer for 10 minutes and quenched with the remaining 25% of the reaction volume that consisted of 450 mM Tris pH 8.0. Lysates were mixed in a 1:1 ratio with Glucoamylase in 100 mM Sodium Acetate buffer, pH 5.3; the mixture was incubated for 1 h at 37° C. The digested lysate was mixed in a 1:1 ratio with Glucose-glo detection mixture as per vendor recommendations (Luciferase detection buffer, Reductase, Reductase substrate, Glucose dehydrogenase, and NAD) in read-out plates (solid white 384-well plates) and incubated for 1 h at RT. The plates were read using a plate reader with luminescence capabilities. Each compound concentration Relative Luminescence Unit (RLU) was averaged and normalized to the average RLU of the positive and negative controls to obtain a percentage inhibition. The normalized data vs. concentration was plotted; to determine the half-maximal concentration (IC50), the Levenberg-Marquardt algorithm was used to fit a Hill equation to the dose response data.
The results are shown in Table 3 below, which reports the IC50 of each compound. Unless otherwise specified, IC50 values are reported as the geometric mean of at least 2 assay runs on separate days. As shown in the table below, the compounds of the present invention are potent inhibitors of human GYS1. Unless otherwise specified, IC50 values are reported as the geometric mean of at least two assay runs on separate days. Each run represents the average of a technical replicate, where each compound was assayed twice in the same plate. A superscript “#” symbol in Table 3 indicates results from a single assay run.

[2] = molecular target: hGYS1 enzyme (recombinant hGYS1/GN1 protein) (Homo sapiens (Human), UniProt P13807); assay: GYS1 coupled enzyme assay (PK/LDH); assay type: biochemical; settings: hGYS1/GN1 50 nM, UDP-Glucose 0.8 mM, G6P 1 mM; geometric mean of at least 2 runs
[3] = molecular target: hGYS2 enzyme (recombinant hGYS2/GN1 protein) (Homo sapiens (Human), UniProt P54840); assay: GYS2 coupled enzyme assay (PK/LDH); assay type: biochemical; settings: geometric mean of at least 2 assay runs on separate days, read-out: Avg_IC50
In short: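 hGYS2/GN1 200 nM; UDP-Glc 2 mM; glycogen 0.2%; G6P 2 mM; PEP 2 mM, NADH 0.6 mM, PK/LDH 20 U/mL. 50 mM Tris pH 7.5, MgCl2, KCl, BSA, TCEP, 2.5% DMSO. Kinetic A340, 10 min. IC50 = geomean of ≥2 runs.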

Sequence of hGYS2 enzyme (recombinant hGYS2/GN1 protein) (P54840 whole entry): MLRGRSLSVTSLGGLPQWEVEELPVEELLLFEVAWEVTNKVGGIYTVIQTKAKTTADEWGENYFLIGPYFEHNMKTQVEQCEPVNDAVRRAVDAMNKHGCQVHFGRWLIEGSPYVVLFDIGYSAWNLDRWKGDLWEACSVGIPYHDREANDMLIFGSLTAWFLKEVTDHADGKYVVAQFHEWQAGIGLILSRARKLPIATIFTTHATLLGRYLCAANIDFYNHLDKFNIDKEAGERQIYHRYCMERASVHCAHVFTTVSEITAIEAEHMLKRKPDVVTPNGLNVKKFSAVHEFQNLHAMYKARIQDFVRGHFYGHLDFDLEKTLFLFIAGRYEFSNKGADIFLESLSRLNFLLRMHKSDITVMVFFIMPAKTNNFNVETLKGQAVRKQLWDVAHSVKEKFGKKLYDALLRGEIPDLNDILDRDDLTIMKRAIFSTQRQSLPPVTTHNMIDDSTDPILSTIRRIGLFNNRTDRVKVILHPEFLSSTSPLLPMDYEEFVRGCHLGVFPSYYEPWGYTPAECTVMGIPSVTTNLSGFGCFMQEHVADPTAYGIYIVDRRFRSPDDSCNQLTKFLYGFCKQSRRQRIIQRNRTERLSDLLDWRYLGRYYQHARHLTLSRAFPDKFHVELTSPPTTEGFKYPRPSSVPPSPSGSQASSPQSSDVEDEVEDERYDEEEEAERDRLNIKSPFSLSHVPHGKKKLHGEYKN
Sequence of hGYS2 enzyme (recombinant hGYS2/GN1 protein) (P46976 whole entry partner): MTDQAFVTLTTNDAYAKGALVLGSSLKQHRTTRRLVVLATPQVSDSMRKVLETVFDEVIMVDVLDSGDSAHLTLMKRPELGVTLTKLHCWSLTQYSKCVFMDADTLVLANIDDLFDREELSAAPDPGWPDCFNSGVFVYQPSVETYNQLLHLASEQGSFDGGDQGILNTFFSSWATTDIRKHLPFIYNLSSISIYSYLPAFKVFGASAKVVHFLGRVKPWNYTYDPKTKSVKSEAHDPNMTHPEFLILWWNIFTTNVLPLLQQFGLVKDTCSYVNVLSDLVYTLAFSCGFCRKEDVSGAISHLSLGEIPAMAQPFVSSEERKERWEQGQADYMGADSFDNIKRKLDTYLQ
Sequence of hGYS1 enzyme (recombinant hGYS1/GN1 protein) (P13807 whole entry): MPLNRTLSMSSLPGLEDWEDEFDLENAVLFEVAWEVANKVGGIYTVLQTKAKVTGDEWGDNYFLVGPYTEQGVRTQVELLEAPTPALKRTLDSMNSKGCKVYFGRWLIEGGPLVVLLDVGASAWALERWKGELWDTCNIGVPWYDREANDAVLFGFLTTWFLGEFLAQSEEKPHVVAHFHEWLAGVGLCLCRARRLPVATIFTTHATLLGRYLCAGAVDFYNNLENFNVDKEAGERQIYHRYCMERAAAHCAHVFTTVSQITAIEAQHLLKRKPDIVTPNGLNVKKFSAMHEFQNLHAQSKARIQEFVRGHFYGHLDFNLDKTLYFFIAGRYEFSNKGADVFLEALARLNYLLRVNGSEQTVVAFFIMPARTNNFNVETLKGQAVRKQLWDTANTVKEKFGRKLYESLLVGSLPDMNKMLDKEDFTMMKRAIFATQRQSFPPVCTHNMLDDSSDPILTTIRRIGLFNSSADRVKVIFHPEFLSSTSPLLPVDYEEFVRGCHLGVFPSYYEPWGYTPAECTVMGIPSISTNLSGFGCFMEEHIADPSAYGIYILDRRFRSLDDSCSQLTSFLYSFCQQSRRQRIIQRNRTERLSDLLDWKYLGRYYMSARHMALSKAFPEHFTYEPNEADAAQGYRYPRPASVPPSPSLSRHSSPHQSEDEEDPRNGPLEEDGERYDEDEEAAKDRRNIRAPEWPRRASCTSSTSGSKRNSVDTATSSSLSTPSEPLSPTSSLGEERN
Sequence of hGYS1 enzyme (recombinant hGYS1/GN1 protein) (P46976 whole entry partner): as the sequence (P46976 whole entry partner) above

SMILES	IC50 [1] [nM]	IC50 [2] [nM]	IC50 [3] [nM]
CC(=O)N1C[C@H]2CC[C@H](C(=O)N3C[C@H](F)C[C@H]3C(=O)N[C@@H](c3ccccc3)c3ccc(C(C)C)cc3)[C@H]2C1 [Compound 177, (2S,4R)-1-[(3aS,4S,6aS)-2-acetyl-octahydrocyclopenta[c]pyrrole-4-carbonyl]-4-fluoro-N-[(S)-phenyl[4-(propan-2-yl)phenyl]methyl]pyrrolidine-2-carboxamide]	2090	349	–
CC(=O)N1C[C@H](F)C[C@H]1C(=O)NC(c1cccc(-c2cc(C)nn2C)c1)c1ccc(C(C)C)c(F)n1 (single isomer, unassigned) [Compound 697, (2S,4R)-1-acetyl-N-[(S) or (R)-[3-(1,3-dimethyl-1H-pyrazol-5-yl)phenyl][6-fluoro-5-(propan-2-yl)pyridin-2-yl]methyl]-4-fluoropyrrolidine-2-carboxamide]	9200	–	–
CC(=O)N1C[C@@H](O)C[C@H]1C(=O)N[C@@H](c1ccccc1)c1ccc(C(C)C)cc1 [Compound 204, (2S,4S)-1-acetyl-4-hydroxy-N-[(S)-phenyl[4-(propan-2-yl)phenyl]methyl]pyrrolidine-2-carboxamide]	–	3530	> 100000
CC(=O)N1C[C@H](O)C[C@H]1C(=O)N[C@@H](c1ccccc1)c1ccc(C(C)C)cc1 [Compound 205, (2S,4R)-1-acetyl-4-hydroxy-N-[(S)-phenyl[4-(propan-2-yl)phenyl]methyl]pyrrolidine-2-carboxamide]	–	3740	> 100000
CC(C)c1ccc([C@@H](NC(=O)[C@@H]2C[C@@H](F)CN2C(=O)Cc2cnco2)c2ccccc2)cc1 [Compound 195, (2S,4R)-4-fluoro-1-[2-(1,3-oxazol-5-yl)acetyl]-N-[(S)-phenyl[4-(propan-2-yl)phenyl]methyl]pyrrolidine-2-carboxamide]	–	44	> 100000
Cc1n[nH]c(C)c1CC(=O)N1C[C@H](F)C[C@H]1C(=O)N[C@@H](c1ccccc1)c1ccc(C2CC2)c(F)c1 [Compound 444, (2S,4R)-N-[(S)-(4-cyclopropyl-3-fluorophenyl)(phenyl)methyl]-1-[2-(3,5-dimethyl-1H-pyrazol-4-yl)acetyl]-4-fluoropyrrolidine-2-carboxamide]	–	44	> 100000
CC(C)c1ccc([C@@H](NC(=O)[C@@H]2CCCN2C(=O)C2CC2)c2ccccc2)cc1 [Compound 203, (2S)-1-cyclopropanecarbonyl-N-[(S)-phenyl[4-(propan-2-yl)phenyl]methyl]pyrrolidine-2-carboxamide]	–	862	> 100000
CC(C)c1ccc([C@@H](NC(=O)[C@@H]2C[C@@H](F)CN2C(=O)C(C)c2ccccn2)c2ccccc2)cc1 (stereo partly drawn) [Compound 64, (2S,4R)-4-fluoro-N-[(S)-phenyl[4-(propan-2-yl)phenyl]methyl]-1-[2-(pyridin-2-yl)propanoyl]pyrrolidine-2-carboxamide]	–	81	> 100000
CC(C)c1ccc([C@@H](NC(=O)[C@@H]2C[C@@H](F)CN2C(=O)Cc2ccc3ncccc3c2)c2ccccc2)cc1 [Compound 96, (2S,4R)-4-fluoro-N-[(S)-phenyl[4-(propan-2-yl)phenyl]methyl]-1-[2-(quinolin-6-yl)acetyl]pyrrolidine-2-carboxamide]	–	21	> 100000
CC(C)c1ccc([C@@H](NC(=O)[C@@H]2C[C@@H](F)CN2C(=O)Cn2nnc3ccccc32)c2ccccc2)cc1 [Compound 68, (2S,4R)-1-[2-(1H-1,2,3-benzotriazol-1-yl)acetyl]-4-fluoro-N-[(S)-phenyl[4-(propan-2-yl)phenyl]methyl]pyrrolidine-2-carboxamide]	–	34	> 100000
CC(C)c1c(F)cc(C(NC(=O)[C@@H]2C[C@@H](F)CN2C(=O)Cc2ncco2)c2ccccc2)cc1F (single isomer, unassigned) [Compound 661, (2S,4R)-N-[(S) or (R)-[3,5-difluoro-4-(propan-2-yl)phenyl](phenyl)methyl]-4-fluoro-1-[2-(1,3-oxazol-2-yl)acetyl]pyrrolidine-2-carboxamide]	–	43	> 100000
CC(C)c1ccc([C@@H](NC(=O)[C@@H]2C[C@@H](F)CN2C(=O)Cc2ccnn2C)c2ccccc2)cc1 (stereo in doubt) [Compound 220, (2S,4RS)-4-fluoro-1-[2-(1-methyl-1H-pyrazol-5-yl)acetyl]-N-[(S)-phenyl[4-(propan-2-yl)phenyl]methyl]pyrrolidine-2-carboxamide]	–	38	> 100000

Results, then the molecule that gave them:

IC50 [1] [nM]	IC50 [2] [nM]	IC50 [3] [nM]	SMILES
210	–	–	CC(C)c1ccc([C@@H](NC(=O)[C@@H]2C[C@@H](F)CN2C(=O)CNC(=O)N(C)C)c2ccccc2)cc1F [Compound 361, (2S,4R)-1-{2-[(dimethylcarbamoyl)amino]acetyl}-4-fluoro-N-[(S)-[3-fluoro-4-(propan-2-yl)phenyl](phenyl)methyl] pyrrolidine-2-carboxamide]
180	–	–	COc1nc(CC(=O)N2C[C@H](F)C[C@H]2C(=O)N[C@@H](c2ccccc2)c2ccc(C(C)C)c(F)n2)nn1C [Compound 800, (2S,4R)-4-fluoro-N-[(S)-[6-fluoro-5-(propan-2-yl)pyridin-2-yl](phenyl)methyl]-1-[2-(5-methoxy-1-methyl-1H-1,2,4-triazol-3-yl)acetyl] pyrrolidine-2-carboxamide]
630	–	–	O=C(N[C@@H](c1ccccc1)c1ccc(C2CC2)c(F)n1)[C@@H]1C[C@@H](F)CN1C(=O)CNC(=O)N1CCC1 [Compound 305, (2S,4R)-1-{2-[(azetidine-1-carbonyl)amino]acetyl}-N-[(S)-(5-cyclopropyl-6-fluoropyridin-2-yl)(phenyl)methyl]-4-fluoropyrrolidine-2-carboxamide]
22300	–	–	O=C(N[C@H](c1ccccc1)c1ccc(C2CC2)c(F)n1)[C@@H]1C[C@@H](F)CN1C(=O)Cn1cnc2ccccc21 [Compound 716, (2S,4R)-1-[2-(1H-1,3-benzodiazol-1-yl)acetyl]-N-[(R)-(5-cyclopropyl-6-fluoropyridin-2-yl)(phenyl)methyl]-4-fluoropyrrolidine-2-carboxamide]
130	–	–	CC(C)c1ccc([C@@H](NC(=O)[C@@H]2C[C@@H](F)CN2C(=O)Cn2cc(N3CCC3)nn2)c2ccccc2)nc1F [Compound 787, (2S,4R)-1-{2-[4-(azetidin-1-yl)-1H-1,2,3-triazol-1-yl]acetyl}-4-fluoro-N-[(S)-[6-fluoro-5-(propan-2-yl)pyridin-2-yl](phenyl)methyl] pyrrolidine-2-carboxamide]
3290	–	–	COc1cccc(C(NC(=O)[C@@H]2C[C@@H](F)CN2C(C)=O)c2ccc(C(C)C)c(F)n2)c1 (single isomer, unassigned) [Compound 654, (2S,4R)-1-acetyl-4-fluoro-N-[(S) or (R)-[6-fluoro-5-(propan-2-yl)pyridin-2-yl](3-methoxyphenyl)methyl]pyrrolidine-2-carboxamide]
1230	–	–	NC(=O)NCC(=O)N1C[C@H](F)C[C@H]1C(=O)N[C@@H](c1ccccc1)c1ccc(C2CC2)c(F)n1 [Compound 302, (2S,4R)-1-[2-(carbamoylamino)acetyl]-N-[(S)-(5-cyclopropyl-6-fluoropyridin-2-yl)(phenyl)methyl]-4-fluoropyrrolidine-2-carboxamide]
380	–	–	CC(C)c1ccc([C@@H](NC(=O)[C@@H]2C[C@@H](F)CN2C(=O)Cc2nc(C(F)(F)F)co2)c2ccccc2)nc1F [Compound 801, (2S,4R)-4-fluoro-N-[(S)-[6-fluoro-5-(propan-2-yl)pyridin-2-yl](phenyl)methyl]-1-{2-[4-(trifluoromethyl)-1,3-oxazol-2-yl]acetyl} pyrrolidine-2-carboxamide]
